pKi: −log10 of the molar value.

In general, pKi refers to the negative decadic logarithm of the Ki, by convention in mol/L.

The target in this test is T1, h-GABAA α5β2γ1 (Homo sapiens, UniProt P31644+Q8N1C3).
T1 construct: expressed in transfected cells; host or cells: HEK293F cells (ThermoFisher R79007), membranes
T1 sequence (P31644 32-462): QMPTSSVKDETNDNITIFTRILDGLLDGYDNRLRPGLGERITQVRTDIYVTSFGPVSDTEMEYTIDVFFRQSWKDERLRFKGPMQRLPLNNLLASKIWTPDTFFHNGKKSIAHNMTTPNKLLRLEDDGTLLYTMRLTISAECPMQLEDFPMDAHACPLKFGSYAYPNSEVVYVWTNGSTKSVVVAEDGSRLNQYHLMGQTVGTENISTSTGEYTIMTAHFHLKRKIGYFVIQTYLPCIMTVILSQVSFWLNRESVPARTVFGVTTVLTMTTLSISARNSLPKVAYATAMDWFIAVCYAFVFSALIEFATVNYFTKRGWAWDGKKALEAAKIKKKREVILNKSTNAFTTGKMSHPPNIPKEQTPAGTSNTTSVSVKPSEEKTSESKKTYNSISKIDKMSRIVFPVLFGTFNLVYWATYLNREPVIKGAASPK
T1 sequence (P47870 25-512 partner limits assumed): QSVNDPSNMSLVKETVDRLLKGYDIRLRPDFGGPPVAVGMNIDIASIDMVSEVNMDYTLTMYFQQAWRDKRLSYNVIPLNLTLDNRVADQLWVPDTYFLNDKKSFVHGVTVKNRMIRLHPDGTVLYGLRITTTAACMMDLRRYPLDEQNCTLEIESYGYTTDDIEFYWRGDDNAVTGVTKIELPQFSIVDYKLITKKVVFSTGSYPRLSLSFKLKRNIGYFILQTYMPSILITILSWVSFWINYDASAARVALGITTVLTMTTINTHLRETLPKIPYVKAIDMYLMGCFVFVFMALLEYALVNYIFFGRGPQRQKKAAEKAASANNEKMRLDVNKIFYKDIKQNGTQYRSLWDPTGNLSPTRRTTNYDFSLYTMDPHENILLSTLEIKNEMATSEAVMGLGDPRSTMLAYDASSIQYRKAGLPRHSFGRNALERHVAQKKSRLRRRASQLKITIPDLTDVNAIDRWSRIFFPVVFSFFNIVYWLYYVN
T1 sequence (Q8N1C3 36-465): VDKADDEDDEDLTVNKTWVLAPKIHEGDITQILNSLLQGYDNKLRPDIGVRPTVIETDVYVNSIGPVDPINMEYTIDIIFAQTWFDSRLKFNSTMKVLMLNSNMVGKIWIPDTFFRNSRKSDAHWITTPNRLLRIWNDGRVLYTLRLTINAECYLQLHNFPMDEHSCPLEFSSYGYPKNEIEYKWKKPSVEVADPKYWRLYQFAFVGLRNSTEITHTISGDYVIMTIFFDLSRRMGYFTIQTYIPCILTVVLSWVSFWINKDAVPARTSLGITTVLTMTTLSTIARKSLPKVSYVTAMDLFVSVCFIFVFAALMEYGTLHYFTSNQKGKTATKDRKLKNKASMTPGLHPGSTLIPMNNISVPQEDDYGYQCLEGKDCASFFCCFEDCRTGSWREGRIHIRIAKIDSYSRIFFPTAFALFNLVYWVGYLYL
Kind of test: Radioligand binding assay, [3H]RO7239181 competition, HEK293F membranes. The method, boiled down: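 Competition for [3H]RO7239181 (1.5 nM) binding to membranes from HEK293F cells transiently expressing human α5β2γ1 receptors. Compounds tested at 0.3–10000 nM; nonspecific binding defined with 10 μM RO7235136. Incubation 1 h at 4 °C in 10 mM KPi/100 mM KCl, pH 7.4; filtration, scintillation counting; Ki as mean of two determinations.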
Turning to `Fc1cccc(F)c1C1=NCc2nnc(C3CCOCC3)n2-c2ccc(Cl)c(Cl)c21` [Example 11, 7,8-dichloro-6-(2,6-difluorophenyl)-1-tetrahydropyran-4-yl-4H-[1,2,4]triazolo[4,3-a][1,4]benzodiazepine], the pKi was 8.08.
`Cc1nnc2n1-c1ccc(Cl)c(Cl)c1C(c1ncccc1F)=NC2` [Example 71, 7,8-dichloro-6-(3-fluoro-2-pyridyl)-1-methyl-4H-[1,2,4]triazolo[4,3-a][1,4]benzodiazepine] had a negative-log Ki (pKi) of 8.24.
In turn, `Fc1cccnc1C1=NCc2nnc(-c3cccnn3)n2-c2ccc(C(F)(F)F)c(Cl)c21` [Example 72, 7-chloro-6-(3-fluoro-2-pyridyl)-1-pyridazin-3-yl-8-(trifluoromethyl)-4H-[1,2,4]triazolo[4,3-a][1,4]benzodiazepine] gave a pKi of 8.27.
In the case of `Fc1cccc(F)c1C1=NCc2nncn2-c2ccc(Br)c(Cl)c21` [Example 7, 8-bromo-7-chloro-6-(2,6-difluorophenyl)-4H-[1,2,4]triazolo[4,3-a][1,4]benzodiazepine] it was 9.40; in that of `Cc1ccc2c(c1Cl)C(c1c(F)cccc1F)=NCc1n[nH]c(=O)n1-2` [Example 16, 7-chloro-6-(2,6-difluorophenyl)-8-methyl-2,4-dihydro-[1,2,4]triazolo[4,3-a][1,4]benzodiazepin-1-one], 8.74.
For `COc1ccc2c(c1Cl)C(c1c(F)cccc1F)=NCc1nnc(-c3ccncn3)n1-2` [Example 61, 7-chloro-6-(2,6-difluorophenyl)-8-methoxy-1-pyrimidin-4-yl-4H-[1,2,4]triazolo[4,3-a][1,4]benzodiazepine], the negative logarithm of the Ki (pKi) is 8.38.
